As usually defined, the Ki is the dissociation constant of the complex between target and ligand, obtained from inhibition or displacement. High values mean weaker binding, low ones tighter binding.

The structures appear in SMILES notation. Bounds are passed on as bounds.

This experiment addresses T1, human MR (Homo sapiens, UniProt P08235).
T1 construct: The full length human MR gene is cloned from a human kidney or human brain cDNA library; made in house; host or cells: Sf9 insect cells (baculovirus, pAcHLT transfer vector)
T1 sequence (P08235 1-984): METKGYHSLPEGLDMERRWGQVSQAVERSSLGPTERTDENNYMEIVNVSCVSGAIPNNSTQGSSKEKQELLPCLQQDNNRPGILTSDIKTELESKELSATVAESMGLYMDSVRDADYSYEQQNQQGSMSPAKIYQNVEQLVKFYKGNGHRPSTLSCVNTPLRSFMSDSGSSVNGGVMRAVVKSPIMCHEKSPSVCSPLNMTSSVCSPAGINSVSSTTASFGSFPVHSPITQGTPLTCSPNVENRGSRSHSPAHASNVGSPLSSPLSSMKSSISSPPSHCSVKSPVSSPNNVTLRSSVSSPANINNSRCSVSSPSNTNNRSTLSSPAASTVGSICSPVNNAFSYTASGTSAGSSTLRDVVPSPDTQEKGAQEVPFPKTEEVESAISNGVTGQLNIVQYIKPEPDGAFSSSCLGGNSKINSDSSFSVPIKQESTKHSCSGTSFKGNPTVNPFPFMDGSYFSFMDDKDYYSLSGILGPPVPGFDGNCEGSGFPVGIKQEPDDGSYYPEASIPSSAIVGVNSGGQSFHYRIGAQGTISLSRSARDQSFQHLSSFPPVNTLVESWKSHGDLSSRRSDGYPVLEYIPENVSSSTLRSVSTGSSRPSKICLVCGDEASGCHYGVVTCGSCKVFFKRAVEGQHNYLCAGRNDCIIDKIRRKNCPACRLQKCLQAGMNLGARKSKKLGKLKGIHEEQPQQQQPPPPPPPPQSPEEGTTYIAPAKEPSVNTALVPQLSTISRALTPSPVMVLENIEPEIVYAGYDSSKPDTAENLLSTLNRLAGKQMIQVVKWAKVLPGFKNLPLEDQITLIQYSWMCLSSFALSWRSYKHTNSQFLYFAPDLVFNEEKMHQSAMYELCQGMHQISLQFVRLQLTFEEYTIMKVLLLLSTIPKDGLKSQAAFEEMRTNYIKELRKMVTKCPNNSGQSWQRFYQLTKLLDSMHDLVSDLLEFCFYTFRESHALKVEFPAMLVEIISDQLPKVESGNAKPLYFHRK
Briefly: Mineralocorticoid Receptor Binding Assay ([3H]-aldosterone displacement). As to conditions: full length human MR expressed in Sf9 cells, 0.5 nM [3H]-aldosterone. On the procedure:
Mineralocorticoid Receptor Binding Assay:
The full length human MR gene is cloned from a human kidney or human brain cDNA library. Briefly, using synthetic oligonucleotide primers (Eli Lilly and Company, Indianapolis) directed to nucleotides 20-54 and 3700-3666 of the human MR, polymerase chain reaction (PCR) is performed under standard conditions using a human cDNA library. The PCR reaction is performed in a final volume of 50 μl containing about 1 μl of a 50× stock solution of polymerase; about 1 μl of a 50× stock solution of dNTP; about 5 μl of an appropriate PCR buffer; about 1 μl of each primer; about 5 μl of a H. kidney or H. brain cDNA library; and about 36 μl of water. The reaction is allowed to denature for about 30 seconds at 95 degrees Celsius, anneal for about 30 seconds at 55 degrees Celsius, and extend for about 5 minutes at 72 degrees Celsius, the sequence being repeated for a total of about 35 cycles. The desired PCR product (3.68 Kb) is confirmed by gel electrophoresis and subsequently cut from the gel and stored at about −20 degrees Celsius until extraction. To extract the cDNA product from the agarose gel, the QIAEX II Gel Extraction protocol (QIAGEN, Inc.) is employed according to the manufacturer's instructions. Following extraction, the MR cDNA is cloned into an appropriate cloning vector (Zero Blunt TOPO PCR Cloning Kit (Invitrogen, Inc.) and a pAcHLT-baculovirus transfer vector (B.D./Pharminogen), then expressed in SF9 insect cells, essentially according to manufacturer's instructions. Sf9 cells are grown at a scale where gram quantity cell pellets are obtained for subsequent use in the MR binding assay. Harvested cell pellets are lysed by repeated freeze-thaw cycles (about 4) in a suitable lysis buffer then centrifuged at about 1×10^3 G (with the supernatant being saved for future assays).
MR binding assays are performed in a final total volume of about 250 μl containing about 20-25 μg of protein and 0.5 nM of [^3H]-aldosterone plus varying concentrations of test compound or vehicle. The assay binding buffer consists of 30 mM sodium molybdate, 30 mM of TRIS-HCl, 5 mM sodium phosphate, 5 mM sodium pyrophosphate, and about 10% glycerol, pH=7.5.
Briefly, assays are prepared at RT in 96-well Falcon 3072 plates, each well containing 210 μl of binding buffer, 10 μl of [^3H]-aldosterone, 10 μl of test compound/vehicle, and 20 μl of the resuspended receptor protein extract. Incubations are carried out at 4 degrees Celsius with shaking for about 16 hours. 200 μl aliquots of each incubation are filtered onto Millipore HA 0.45 micron 96-well filter plates, pre-moistened with cold 30 mM TRIS-HCl. The filter plates are suctioned dry with vacuum and immediately washed 3× with cold 30 mM TRIS-HCl. The plates are then punched out and the amount of receptor-ligand complex is determined by liquid scintillation counting using 4 ml of Ready Protein Plus™ liquid scintillation cocktail.
IC50 values (defined as the concentration of test compound required to decrease [^3H]-aldosterone binding by 50%) are then determined. Ki values for each respective test compound can then be calculated by application of the Cheng-Prusoff equation as described in Cheng et al., Relationship Between The Inhibition Constant (Ki) and The Concentration of Inhibitor Which Causes 50% Inhibition (IC50) of an Enzymatic Reaction, Biochem. Pharmacol., 22: 3099-31088; (1973).
Consider `COc1ccc(N2C(=O)C(c3cc(C)c(O)c(C)c3)(c3cc(C)c(O)c(C)c3)c3ccccc32)cc1OC` [Example 140, 1-(3,4-Dimethoxy-phenyl)-3,3-bis-(4-hydroxy-3,5-dimethyl-phenyl)-1,3-dihydro-indol-2-one], for which the Ki is not above 0.5 µM.

The compound `COc1ccc(-c2nc(CN3C(=O)C(c4cc(C)c(O)c(C)c4)(c4cc(C)c(O)c(C)c4)c4cc(C)ccc43)cs2)cc1` [Example 95, 3,3-Bis-(4-hydroxy-3,5-dimethyl-phenyl)-1-[2-(4-methoxy-phenyl)-thiazol-4-ylmethyl]-5-methyl-1,3-dihydro-indol-2-one] registered a Ki not above 0.5 µM.

`Cc1ccccc1N1C(=O)C(c2cc(C)c(O)c(C)c2)(c2cc(C)c(O)c(C)c2)c2ccccc21` [Example 132, 3,3-Bis-(4-hydroxy-3,5-dimethyl-phenyl)-1-o-tolyl-1,3-dihydro-indo 1-2-one] registered a Ki not above 0.5 µM.

`CC(C)=CCN1C(=O)C(c2cc(C)c(O)c(C)c2)(c2cc(C)c(O)c(C)c2)c2ccccc21` [Example 102, 3,3-Bis-(4-hydroxy-3,5-dimethyl-phenyl)-1-(3-methyl-but-2-enyl)-1,3-dihydro-indol-2-one] gave an inhibitory constant (Ki) not above 0.5 µM.

The compound `COC(=O)c1cccc(-c2noc(CN3C(=O)C(c4cc(C)c(O)c(C)c4)(c4cc(C)c(O)c(C)c4)c4ccccc43)n2)c1` [Example 141, 3-{5-[3,3-Bis-(4-hydroxy-3,5-dimethyl-phenyl)-2-oxo-2,3-dihydro-indol-1-ylmethyl]-[1,2,4]oxadiazol-3-yl}-benzoic acid methyl ester] yielded a Ki not above 0.5 µM.

In turn, `Cc1cc(C2(c3cc(C)c(O)c(C)c3)C(=O)N(Cc3ccccc3Cl)c3c(C)cccc32)cc(C)c1O` [Example 24, 1-(2-Chloro-benzyl)-3,3-bis-(4-hydroxy-3,5-dimethyl-phenyl)-7-methyl-1,3-dihydro-indol-2-one] came in with a Ki not above 0.5 µM.

Regarding `Cc1cc(C2(c3cc(C)c(O)c(C)c3)C(=O)N(Cc3noc(C4CCC4)n3)c3ccccc32)cc(C)c1O` [Example 86, 1-(5-Cyclobutyl-[1,2,4]oxadiazol-3-ylmethyl)-3,3-bis-(4-hydroxy-3,5-dimethyl-phenyl)-1,3-dihydro-indol-2-one], the Ki was not above 0.5 µM.

`Cc1cc(C2(c3cc(C)c(O)c(C)c3)C(=O)N(Cc3ccccc3Cl)c3ccc(Br)cc32)cc(C)c1O` [Example 19, 5-Bromo-1-(2-chloro-benzyl)-3,3-bis-(4-hydroxy-3,5-dimethyl-phenyl)-1,3-dihydro-indol-2-one]: the Ki was not above 0.5 µM.

With `Cc1cc(C2(c3cc(C)c(O)c(C)c3)C(=O)N(Cc3cccc(OC(F)(F)F)c3)c3ccccc32)cc(C)c1O` [Example 8, 3,3-Bis-(4-hydroxy-3,5-dimethyl-phenyl)-1-(3-trifluoromethoxy-benzyl)-1,3-dihydro-indol-2-one], the Ki is not above 0.5 µM.

For `Cc1ccc2c(c1)C(c1cc(C)c(O)c(C)c1)(c1cc(C)c(O)c(C)c1)C(=O)N2Cc1ccccc1Cl` [Example 22, 1-(2-Chloro-benzyl)-3,3-bis-(4-hydroxy-3,5-dimethyl-phenyl)-5-methyl-1,3-dihydro-indol-2-one], the Ki was not above 0.5 µM.

Turning to `COc1nccc(N2C(=O)C(c3cc(C)c(O)c(C)c3)(c3cc(C)c(O)c(C)c3)c3ccccc32)n1` [Example 143, 3,3-Bis-(4-hydroxy-3,5-dimethyl-phenyl)-1-(2-methoxy-pyrimidin-4-yl)-1,3-dihydro-indol-2-one], the Ki is not above 0.5 µM.

Compound `CCOCCN1C(=O)C(c2cc(C)c(O)c(C)c2)(c2cc(C)c(O)c(C)c2)c2ccccc21` [Example 80, 1-(2-Ethoxy-ethyl)-3,3-bis-(4-hydroxy-3,5-dimethyl-phenyl)-1,3-dihydro-indol-2-one] displayed a Ki not above 0.5 µM.

In turn, `Cc1cc(C2(c3cc(C)c(O)c(C)c3)C(=O)N(Cc3ccccc3C(F)(F)F)c3ccccc32)cc(C)c1O` [Example 53, 3,3-Bis-(4-hydroxy-3,5-dimethyl-phenyl)-1-(2-trifluoromethyl-benzyl)-1,3-dihydro-indol-2-one] registered a Ki not above 0.5 µM.

On to `C#CCN1C(=O)C(c2cc(C)c(O)c(C)c2)(c2cc(C)c(O)c(C)c2)c2ccccc21` [Example 101, 3,3-Bis-(4-hydroxy-3,5-dimethyl-phenyl)-1-prop-2-ynyl-1,3-dihydro-indol-2-one], for which the Ki is not above 0.5 µM.

For the compound `CCCCCN1C(=O)C(c2cc(C)c(O)c(C)c2)(c2cc(C)c(O)c(C)c2)c2ccccc21` [Example 77, 3,3-Bis-(4-hydroxy-3,5-dimethyl-phenyl)-1-pentyl-1,3-dihydro-indol-2-one], the Ki was not above 0.5 µM.

Turning to `Cc1cc(C2(c3cc(C)c(O)c(C)c3)C(=O)N(c3ccccc3)c3ccccc32)cc(C)c1O` [Example 126, 3,3-Bis-(4-hydroxy-3,5-dimethyl-phenyl)-1-phenyl-1,3-dihydro-indol-2-one], the Ki was not above 0.5 µM.

Turning to `Cc1cc(C2(c3cc(C)c(O)c(C)c3)C(=O)N(Cc3ccc([N+](=O)[O-])cc3)c3ccccc32)cc(C)c1O` [Example 62, 3,3-Bis-(4-hydroxy-3,5-dimethyl-phenyl)-1-(4-nitro-benzyl)-1,3-dihydro-indol-2-one], the Ki is not above 0.5 µM.

Compound `CCCN1C(=O)C(c2cc(C)c(O)c(C)c2)(c2cc(C)c(O)c(C)c2)c2ccccc21` [Example 5, 3,3-Bis-(4-hydroxy-3,5-dimethyl-phenyl)-1-propyl-1,3-dihydro-indol-2-one] returned a Ki not above 0.5 µM.

With `Cc1cc(C2(c3cc(C)c(O)c(C)c3)C(=O)N(CC#N)c3ccccc32)cc(C)c1O` [Example 78, [3,3-Bis-(4-hydroxy-3,5-dimethyl-phenyl)-2-oxo-2,3-dihydro-indol-1-yl]-acetonitrile], the Ki was not above 0.5 µM.

For the compound `Cc1cc(C2(c3cc(C)c(O)c(C)c3)C(=O)N(c3ccncc3)c3ccccc32)cc(C)c1O` [Example 136, 3,3-Bis-(4-hydroxy-3,5-dimethyl-phenyl)-1-pyridin-4-yl-1,3-dihydro-indol-2-one], the Ki is not above 0.5 µM.

`Cc1cc(C2(c3cc(C)c(O)c(C)c3)C(=O)N(Cc3ccccc3Cl)c3cccc(Cl)c32)cc(C)c1O` [Example 26, 4-Chloro-1-(2-chloro-benzyl)-3,3-bis-(4-hydroxy-3,5-dimethyl-phenyl)-1,3-dihydro-indol-2-one] returned a Ki not above 0.5 µM.

The values above are taken from US7250442B2, “Dihydroindol-2-one derivatives as steroid hormone nuclear receptor modulators” (Eli Lilly and Company, priority 2003, dated 2007).
